From US20160367659A1, “VIRAL PEPTIDES” (EQUIGERMINAL SA, priority 2013, published 2016)
Where a SMILES comes first, the peptide text is derived from it. [ ]: non-standard residue; d: D form. The star is where a group is joined. Sta = CC(C)C[C@H](N)[C@@H](O)CC(=O)O; Isovaleryl = CC(C)CC(=O)*

How the values were obtained:
[1] = tested on: protease activity of NEV fractions; test: In vitro protease cleavage activity of NEV viral protein fractions (fluorescence assay); format: biochemical; details: inhibitor 10 μM; Phe-Phe substrate pH 3 and 4, HIV substrate 1 pH 5; fractions 12, 15 and 16
Method: To assess for in vitro proteolytic cleavage activity, cell infections were performed in serum free media conditions. Day 5-7 p.i. viral particles were concentrated and extensively washed with HBSS in Vivaspin 100 kDa (Sartorius) columns. Concentrated viral particles were lysed in 0.1% SDS and submitted to analytical size-exclusion chromatography on a Superdex 200 5/150 GL (GE Healthcare Life Sciences) column connected to a Prominence HPLC system (Shimadzu Corporation, Tokyo, Japan). The column was equilibrated in 20 mM phosphate buffer pH 7.5 containing 150 mM NaCl.
The protease activity was determined by fluorescence assays in 96-well plates in a Gemini EM Fluorescence Microplate Reader, using the HIV Protease Substrate 1 Arg-Glu(EDANS)-Ser-Gln-Asn-Tyr-Pro-Ile-Val-Gln-Lys(DABCYL)-Arg (Sigma Aldrich) or the Phe-Phe substrate. For determination of the pH profile, viral particles were assayed for activity at 37° C. in buffers ranging between pH 3 and 6 (50 mM sodium acetate pH 3.0, 4.0, 5.0, and 6.0; 50 mM Tris-HCl […]) containing 100 mM NaCl. To test the specificity of enzymatic cleavage, Indinavir (Sigma Aldrich), a specific inhibitors of HIV protease, or pepstatin were used. The protease was pre-incubated in the presence of the inhibitor. […] The rate of substrate hydrolysis was monitored for 3 hours by the increase of intensity with excitation/emission wavelengths of 328/393 nm.

[2] = tested on: mab#4G6E4; test: ELISA dose response of mab#4G6E4 on peptide-coated wells; format: binding, Mouse
Method: For that, serial dilutions of peptides in duplicates (1:1.3 or 1:1.4 in 0.05M carbonate buffer pH=9.3) ranging between 5 to 500 ng/mL were covalently linked to 96 microwell Poylsorp amino plates (Nunc, Thermofisher) for two hours at room temperature. To remove unbound peptide, plates were washed three times with PBS-Tween20 (0.005%) in an automated Wellwasher apparatus (Thermoscientific). After washing, plates were blocked by adding 300 microliters/well of Superblock T20 in PBS (Thermoscientific, Pierce). Superblock T20 was immediately removed and plates inverted till drying out. After blocked and dried plates were ready for c-ELISA or to be stored at 4-8° C. for further testing. […]
A rapid (2 hours) c-ELISA procedure was performed as follows: 70 ng/mL of mab#4G6E4 alone (50 microliters) diluted in dilution buffer was added to peptide-coated wells and incubated for 1 hour at 37° C. After 1 hour of incubation plates were extensively washed with 300 microliters of PBS-Tween20 (0.05%) for three times. The plate was after that incubated with a secondary goat anti-mouse IgG-HRP (Sigma Aldrich) at 1:2500 dilution and incubated for 30 minutes at 37° C. Plates were washed again four times with 300 microliters of PBS-Tween20 (0.05%) and signal developed by adding 50 microliters of fresh TMB reagent (Sigma Aldrich) for 15 minutes at room temperature. After colour development the reaction was stopped by adding 50 microliters of 1N H2SO4 (Sigma Aldrich). Determination of absorbance was obtained by reading plates at 450 nm in a Multiskan Go ELISA reader (Thermoscientific).
Dose responses curves were analysed by GraphPad Prism 6.0 software by using the four parameter function log(agonist) vs response with a variable slope. […] The Hill slope was very high for both peptides 7.2 for SEQ ID NO: 159 and 6.6 for SEQ ID NO: 20. The results are indicating high affinity between the mab and the peptide sequences (FIG. 6A1).
Furthermore dose response curves were optimized in order to decrease the Hill Slope and turn the assay more sensitive. […]

[3] = 70 ng/mL mab#4G6E4 diluted in 3% BSA, peptide 5 to 500 ng/mL, four parameter fit

Molecule | inhibition of the protease activity of NEV fractions [1] | EC50 [2, 3] [mg/L] | EC50 ([2]; mab#4G6E4 (70 ng/mL) in 0.025% casein blocking instead of 3% BSA) [mg/L]
CC(C)(C)NC(=O)[C@@H]1CN(Cc2cccnc2)CCN1C[C@@H](O)C[C@@H](Cc1ccccc1)C(=O)N[C@H]1c2ccccc2C[C@H]1O [Indinavir] | able to inhibit |  | 
CC(C)CC(=O)N[C@H](C(=O)N[C@H](C(=O)N[C@@H](CC(C)C)[C@@H](O)CC(=O)N[C@@H](C)C(=O)N[C@@H](CC(C)C)[C@@H](O)CC(=O)O)C(C)C)C(C)C [pepstatin] (Isovaleryl-VV[Sta]A[Sta]-OH) | able to inhibit |  | 
EALDKIEEIQNKNKQKAAAQEQNPPPSVSLRSLFG [SEQ ID NO: 159] |  | 0.1635 | 0.059
QEQNPPPSVSLRSLFGNDPL [SEQ ID NO: 20] |  | 0.1937 | 
